According to US20260042764A1, “COMPOSITIONS AND METHODS FOR INHIBITION OF KRAS” (TheRas, Inc., priority 2022, published 2026):

How the values were obtained:
[1] = target: T1, Avi-KRAS G12D (2-169) GTP/RAF1 RBD-3xFLAG (51-131) (Homo sapiens, UniProt P01116, G12D); assay: Raf1-KRAS G12D-GTP disruption HTRF assay (Biological Example 3); assay type: binding
T1 construct: Avi-KRAS G12D (2-169)
Procedure, shortened: (§1)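 Compounds were titrated 10-point, 3-fold from 30 μM against preformed KRAS-GTP:RAF1 RBD (51-131) complexes at 50 nM, using KRAS 2-169 as WT, G12C, G12D or G12V. After 1 h at room temperature in Tris pH 7.5 buffer with MgCl2 and 10% DMSO, time-resolved fluorescence was read. Results are percent activity versus DMSO.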

[2] = target: T2, Avi-KRAS G12C (2-169) GTP/RAF1 RBD-3xFLAG (51-131) (Homo sapiens, UniProt P01116, G12C); assay: Raf1-KRAS G12C-GTP disruption HTRF assay (Biological Example 3); assay type: binding
T2 construct: Avi-KRAS G12C (2-169)
T2 sequence (P01116 2-169 isoform P01116-2 G12C): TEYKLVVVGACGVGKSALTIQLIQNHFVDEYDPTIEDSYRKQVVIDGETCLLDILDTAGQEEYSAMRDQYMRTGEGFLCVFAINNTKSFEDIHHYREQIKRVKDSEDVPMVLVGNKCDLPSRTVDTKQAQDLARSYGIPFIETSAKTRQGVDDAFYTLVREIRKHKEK
Procedure, shortened: as §1

[3] = target: T3, Avi-KRAS WT (2-169) GTP/RAF1 RBD-3xFLAG (51-131) (Homo sapiens, UniProt P01116); assay: Raf1-KRAS WT-GTP disruption HTRF assay (Biological Example 3); assay type: binding
T3 construct: Avi-KRAS WT (2-169)
T3 sequence (P01116 2-169 isoform P01116-2): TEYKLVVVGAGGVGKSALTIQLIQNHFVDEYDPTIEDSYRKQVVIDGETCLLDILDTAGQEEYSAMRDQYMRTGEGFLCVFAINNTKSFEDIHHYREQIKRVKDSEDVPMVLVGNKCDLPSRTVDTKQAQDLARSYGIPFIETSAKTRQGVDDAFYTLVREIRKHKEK
Procedure, shortened: as §1

SW620 cells (KRAS G12V) = assay: Cell-based pERK HTRF assay in SW620 cell (Biological Example 4)
Procedure, shortened: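 In SW620 cells grown in RPMI with 10% FBS, a 4 h compound treatment (0.25% DMSO, 9-point curve from 1 μM) preceded lysis. Phospho-ERK levels were then read by time-resolved FRET at 615 nm emission.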

[4] = target: T4, Avi-KRAS G12V (2-169) GTP/RAF1 RBD-3xFLAG (51-131) (Homo sapiens, UniProt P01116, G12V); assay: Raf1-KRAS G12V-GTP disruption HTRF assay (Biological Example 3); assay type: binding
T4 construct: Avi-KRAS G12V (2-169)
T4 sequence (P01116 2-169 isoform P01116-2 G12V): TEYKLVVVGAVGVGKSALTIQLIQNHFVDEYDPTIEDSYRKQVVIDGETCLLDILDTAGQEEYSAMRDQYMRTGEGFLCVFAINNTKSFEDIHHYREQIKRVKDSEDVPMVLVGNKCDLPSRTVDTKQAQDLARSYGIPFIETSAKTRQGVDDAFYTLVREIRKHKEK
Procedure, shortened: as §1

GP2d cells (KRAS G12D) = assay: Cell-based pERK HTRF assay in GP2d cell (Biological Example 2)
Procedure, shortened: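 Phospho-ERK in lysed cells was detected by HTRF using Eu cryptate and d2 antibodies, read between 4 and 24 h at room temperature. Prior to lysis, KRAS G12D GP2d cells, seeded the day before in DMEM with 10% FBS, were exposed to compounds for 60 min. Compounds were tested as 9-point half-log curves from 1 μM or 100 nM top, with 0.25% DMSO.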

[5] = Homo sapiens, SW-620, SW620 (KRAS G12V) cells

T1 sequence (P01116 2-169 isoform P01116-2 G12D): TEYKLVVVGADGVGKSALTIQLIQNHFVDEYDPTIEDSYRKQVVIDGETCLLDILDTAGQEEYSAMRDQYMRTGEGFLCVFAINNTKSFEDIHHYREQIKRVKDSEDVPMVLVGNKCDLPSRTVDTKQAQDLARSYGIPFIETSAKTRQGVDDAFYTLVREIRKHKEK

CCN(c1nc(OC[C@@]23CCCN2C[C@H](F)C3)nc2c(F)c(-c3ccc(F)c4sc(N)c(C#N)c34)c(C(F)(F)F)cc12)[C@H]1CCN(C(=O)[C@@H]2C[C@@H]2F)[C@@H]1C (atropisomer, axis not shown) [Compound 889]
IC50 ([1]; KRAS G12D, GTP-loaded): 100 to 1000 nM
IC50 ([2]; KRAS G12C, GTP-loaded): 100 to 1000 nM
IC50 ([3]; KRAS WT, GTP-loaded): 100 to 1000 nM
IC50 (SW620 cells (KRAS G12V); [5]): < 100 nM
IC50 ([4]; KRAS G12V, GTP-loaded): 100 to 1000 nM
IC50 (GP2d cells (KRAS G12D); GP2d, GP2d (KRAS G12D) cells): < 100 nM

CCN(c1nc(OC[C@@]23CCCN2C[C@H](F)C3)nc2c(F)c(-c3ccc(F)c4sc(N)c(C#N)c34)c(C(F)(F)F)cc12)[C@H]1CCN(C(=O)c2ccon2)[C@@H]1C [Compound 838]
IC50 ([1]; KRAS G12D, GTP-loaded): 100 to 1000 nM
IC50 ([2]; KRAS G12C, GTP-loaded): 100 to 1000 nM
IC50 ([3]; KRAS WT, GTP-loaded): 100 to 1000 nM
IC50 (SW620 cells (KRAS G12V); [5]): < 100 nM
IC50 ([4]; KRAS G12V, GTP-loaded): 100 to 1000 nM
IC50 (GP2d cells (KRAS G12D); GP2d, GP2d (KRAS G12D) cells): < 100 nM

CCN(c1nc(OC[C@@]23CCCN2C[C@H](F)C3)nc2c(F)c(-c3ccc(F)c4sc(N)c(C#N)c34)c(C(F)(F)F)cc12)[C@H]1C[C@H]2CCCC(=O)N2C1 (atropisomer, axis not shown; (aR)) [Compound 662, 2-amino-4-((S)-4-(ethyl((2S,8aR)-5-oxooctahydroindolizin-2-yl)amino)-8-fluoro-2-(((2R,7aS)-2-fluorotetrahydro-1H-pyrrolizin-7a(5H)-yl)methoxy)-6-(trifluoromethyl)quinazolin-7-yl)-7-fluorobenzo[b]thiophene-3-carbonitrile]
IC50 ([1]; KRAS G12D, GTP-loaded): ≤ 100 nM
IC50 ([2]; KRAS G12C, GTP-loaded): ≤ 100 nM
IC50 ([3]; KRAS WT, GTP-loaded): 100 to 1000 nM
IC50 (SW620 cells (KRAS G12V); [5]): < 100 nM
IC50 ([4]; KRAS G12V, GTP-loaded): ≤ 100 nM
IC50 (GP2d cells (KRAS G12D); GP2d, GP2d (KRAS G12D) cells): < 100 nM

CCN(c1nc(OC[C@@]23CCCN2C[C@H](F)C3)nc2c(F)c(-c3ccc(F)c4sc(N)c(C#N)c34)c(C(F)(F)F)cc12)C1CCN(C(=O)C2CC2)C1 (stereo partly drawn) [Compound 903]
IC50 ([1]; KRAS G12D, GTP-loaded): ≤ 100 nM
IC50 ([2]; KRAS G12C, GTP-loaded): ≤ 100 nM
IC50 ([3]; KRAS WT, GTP-loaded): 100 to 1000 nM
IC50 (SW620 cells (KRAS G12V); [5]): < 100 nM
IC50 ([4]; KRAS G12V, GTP-loaded): ≤ 100 nM
IC50 (GP2d cells (KRAS G12D); GP2d, GP2d (KRAS G12D) cells): < 100 nM

CN(c1nc(OCC23CCCN2CC(F)C3)nc2c(F)c(-c3ccc(F)c4sc(N)c(C#N)c34)c(C(F)(F)F)cc12)C1CCc2ccncc21 (stereo not drawn) [Compound 962]
IC50 ([1]; KRAS G12D, GTP-loaded): 1000 to 10000 nM
IC50 ([2]; KRAS G12C, GTP-loaded): > 10000 nM
IC50 ([3]; KRAS WT, GTP-loaded): 1000 to 10000 nM
IC50 (SW620 cells (KRAS G12V); SW620 (KRAS G12V) cells): < 100 nM
IC50 ([4]; KRAS G12V, GTP-loaded): > 10000 nM
IC50 (GP2d cells (KRAS G12D); GP2d (KRAS G12D) cells): < 100 nM

CCN(c1nc(OC[C@@]23CCCN2C[C@H](F)C3)nc2c(F)c(-c3ccc(F)c4sc(N)c(C#N)c34)c(C(F)(F)F)cc12)[C@@H]1CN2C(=O)N(C)C[C@]2(C)C1 (atropisomer, axis not shown) [Compound 858]
IC50 ([1]; KRAS G12D, GTP-loaded): 100 to 1000 nM
IC50 ([2]; KRAS G12C, GTP-loaded): 100 to 1000 nM
IC50 ([3]; KRAS WT, GTP-loaded): 100 to 1000 nM
IC50 (SW620 cells (KRAS G12V); [5]): < 100 nM
IC50 ([4]; KRAS G12V, GTP-loaded): 100 to 1000 nM
IC50 (GP2d cells (KRAS G12D); GP2d, GP2d (KRAS G12D) cells): < 100 nM

CCN(c1nc(OC[C@@]23CCCN2C[C@H](F)C3)nc2c(F)c(-c3ccc(F)c4sc(N)c(C#N)c34)c(C(F)(F)F)cc12)[C@H]1C[C@H](COC)N(C(=O)N2CC(OC)C2)C1 (atropisomer, axis not shown) [Compound 839]
IC50 ([1]; KRAS G12D, GTP-loaded): 100 to 1000 nM
IC50 ([2]; KRAS G12C, GTP-loaded): 100 to 1000 nM
IC50 ([3]; KRAS WT, GTP-loaded): 100 to 1000 nM
IC50 (SW620 cells (KRAS G12V); [5]): < 100 nM
IC50 ([4]; KRAS G12V, GTP-loaded): 100 to 1000 nM
IC50 (GP2d cells (KRAS G12D); GP2d, GP2d (KRAS G12D) cells): < 100 nM

CN(c1nc(OC[C@@]23CCCN2C[C@H](F)C3)nc2c(F)c(-c3ccc(F)c4sc(N)c(C#N)c34)c(C(F)(F)F)cc12)[C@@H]1CCCc2ccncc21 (atropisomer, axis not shown) [Compound 972]
IC50 ([1]; KRAS G12D-GTP / RAF1 RBD HTRF): 100 to 1000 nM
IC50 ([2]; KRAS G12C-GTP / RAF1 RBD HTRF): 100 to 1000 nM
IC50 ([3]; KRAS WT-GTP / RAF1 RBD HTRF): 100 to 1000 nM
IC50 (SW620 cells (KRAS G12V); Homo sapiens, SW-620, SW620 cells (KRAS G12V)): < 100 nM
IC50 ([4]; KRAS G12V-GTP / RAF1 RBD HTRF): 100 to 1000 nM
IC50 (GP2d cells (KRAS G12D); GP2d, GP2d cells (KRAS G12D)): < 100 nM

CN(Cc1cccnn1)c1nc(OC[C@@]23CCCN2C[C@H](F)C3)nc2c(F)c(-c3ccc(F)c4sc(N)c(C#N)c34)c(C(F)(F)F)cc12 (atropisomer, axis not shown) [Compound 876]
IC50 ([1]; KRAS G12D, GTP-loaded): 100 to 1000 nM
IC50 ([2]; KRAS G12C, GTP-loaded): 100 to 1000 nM
IC50 ([3]; KRAS WT, GTP-loaded): 1000 to 10000 nM
IC50 (SW620 cells (KRAS G12V); [5]): < 100 nM
IC50 ([4]; KRAS G12V, GTP-loaded): 100 to 1000 nM
IC50 (GP2d cells (KRAS G12D); GP2d, GP2d (KRAS G12D) cells): < 100 nM

CCN(c1nc(OC[C@@]23CCCN2C[C@H](F)C3)nc2c(F)c(-c3ccc(F)c4sc(N)c(C#N)c34)c(C(F)(F)F)cc12)[C@H]1CCN(C(=O)N2CC3C(C2)C3(C)C)C1 (stereo partly drawn) [Compound 817]
IC50 ([1]; KRAS G12D, GTP-loaded): 100 to 1000 nM
IC50 ([2]; KRAS G12C, GTP-loaded): 100 to 1000 nM
IC50 ([3]; KRAS WT, GTP-loaded): 1000 to 10000 nM
IC50 (SW620 cells (KRAS G12V); [5]): < 100 nM
IC50 ([4]; KRAS G12V, GTP-loaded): 100 to 1000 nM
IC50 (GP2d cells (KRAS G12D); GP2d, GP2d (KRAS G12D) cells): < 100 nM
